The values that follow come from patent publication US10428060B2, “PI-kinase inhibitors with anti-infective activity” (The Board of Trustees of the Leland Stanford Junior …, priority 2011, dated 2019).

pEC50, pIC50: −log10 of the molar value.

The target in one test is T1, PI4KIIIB (Bos taurus, UniProt O02810).
T1 construct: made in house; host or cells: COS-7 cells, transient transfection, anti-HA immunoprecipitate on protein G Sepharose beads
T1 sequence (O02810 whole entry): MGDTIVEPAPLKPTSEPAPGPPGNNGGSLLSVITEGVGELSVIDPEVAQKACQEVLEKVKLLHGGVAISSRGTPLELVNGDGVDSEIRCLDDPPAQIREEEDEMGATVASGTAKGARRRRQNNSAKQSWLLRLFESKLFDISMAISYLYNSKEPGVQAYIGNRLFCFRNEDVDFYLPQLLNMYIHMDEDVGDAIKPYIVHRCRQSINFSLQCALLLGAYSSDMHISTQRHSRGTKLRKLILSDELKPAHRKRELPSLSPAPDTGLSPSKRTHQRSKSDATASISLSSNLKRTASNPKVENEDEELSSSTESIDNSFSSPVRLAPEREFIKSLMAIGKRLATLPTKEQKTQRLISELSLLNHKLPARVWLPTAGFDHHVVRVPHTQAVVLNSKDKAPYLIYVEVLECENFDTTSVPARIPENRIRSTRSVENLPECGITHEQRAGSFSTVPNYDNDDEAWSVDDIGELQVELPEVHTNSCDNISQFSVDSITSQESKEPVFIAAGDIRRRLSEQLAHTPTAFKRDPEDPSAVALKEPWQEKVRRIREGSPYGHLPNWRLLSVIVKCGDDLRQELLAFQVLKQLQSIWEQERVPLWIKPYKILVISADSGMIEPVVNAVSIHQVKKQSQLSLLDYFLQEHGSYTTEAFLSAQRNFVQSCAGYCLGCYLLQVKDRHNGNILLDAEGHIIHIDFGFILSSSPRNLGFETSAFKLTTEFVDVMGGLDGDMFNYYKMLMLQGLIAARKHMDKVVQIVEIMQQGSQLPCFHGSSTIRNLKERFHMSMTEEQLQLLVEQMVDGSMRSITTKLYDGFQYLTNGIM
Description: PI4KIIIB kinase assay. In kind it is biochemical, bovine.
Details: not given
As for the experimental part: In the assays described here, p110α-p85 complex and p110γ were acquired from Millipore. Assays were performed with Lα-phosphatidylinositol (Avanti) as described in Knight et al. Nat Protoc. […] Inhibitor series were prepared 10% DMSO as 5× stocks for the assay. […] COS-7 cells were cultured in 10 cm dishes and transfected at 70% confluence with 10 μg of plasmid DNA (HA-tagged bovine PI4KIIIβ, HA-tagged human PI4KIIIα) using Lipofectamine 2000 and 5 ml Opti-MEM following the manufacturer's instructions. After 5 hours the transfection medium was replaced with 10 ml complete DMEM. 36 hrs post transfection, cells were washed once with 5 ml PBS (pH 7.4) and lysed in 1 ml of lysis buffer (1) on ice. […] To the lysates was added 200 μl of protein G Sepharose 4 fast flow beads that were prewashed with PBS and lysis buffer and 2 μg of anti-HA antibody. The tubes were then incubated overnight at 4 degrees C. in a tube rotator. […] Kinase reactions were run in a mixture of 45 μL of PI buffer (1 mM PI in kinase buffer), 10 μL of immunoprecipitated beads, 2 µL of inhibitors (dissolved and diluted in DMSO) or DMSO and 5 μL of [γ-^32P]-ATP (1 mM and 2 μCi/tube). The immunoprecipitates in PI buffer were pre-incubated with the drugs for 20 min prior the initiation of kinase reaction by adding ATP and the reactions were carried out for 30 min in 15 ml polypropolyne tubes. Reactions were terminated by addition of 3 ml of CHCl3:CH3OH:HCl (200:100:0.75) followed by 0.6 ml of 0.6N HCl to induce phase separation. The mixtures were vortexed, centrifuged at 2000 rpm for 2 min and the upper phase was discarded. To the lower phase was added 1.5 ml of CHCl3:CH3OH:0.6N HCl (3:48:47) and the mixture vortexed and centrifuged at 2000 rpm for 2 min. The lower phase was then transferred to counting vials and evaporated. Samples were counted in a scintillation beta counter after adding 5 ml of Instafluor (Perkin-Elmer).
PI-kinase assay: Compounds are tested in C.1.1. PI kinase assays as described by Shokat et al., “A membrane capture assay for lipid kinase activity.” Nat. Protoc.
A word on the pIC50: it is the IC50 on a negative log10 scale, so that one unit is a factor of ten. `COc1ccc(-c2sc(NC(=O)CCC3CCCC3)nc2C)cc1S(=O)(=O)NC1CCC(O)CC1` (stereo not drawn) [Compound S-156, 3-cyclopentyl-N-[5-[3-[(4-hydroxycyclohexyl)sulfamoyl]-4-methoxy-phenyl]-4-methyl-thiazol-2-yl]propanamide]: the pIC50 is > 7.00.

For `COc1ccc(-c2sc(NC(=O)CC3CCCC3)nc2C)cc1S(=O)(=O)NC1CCCNC1` (stereo not drawn) [Compound S-173, 2-cyclopentyl-N-[5-[4-methoxy-3-(3-piperidylsulfamoyl)phenyl]-4-methyl-thiazol-2-yl]acetamide; 2,2,2-trifluoroacetic acid], the pIC50 was > 7.00.

With `Cc1ccc(-c2sc(NC(=O)CC3CCCC3)nc2C)cc1S(=O)(=O)NC1CCCNC1` (stereo not drawn) [Compound S-189, 2-cyclopentyl-N-[4-methyl-5-[4-methyl-3-(3-piperidylsulfamoyl)phenyl]thiazol-2-yl]acetamide], the pIC50 was > 7.00.

For `COc1ccc(-c2sc(NCC3CCCCC3)nc2C)cc1S(=O)(=O)NC1CCCC(O)C1` (stereo not drawn) [Compound S-199, 5-[2-(cyclohexylmethylamino)-4-methyl-thiazol-5-yl]-N-(3-hydroxycyclohexyl)-2-methoxy-benzenesulfonamide], the pIC50 was > 7.00.

As to `COc1ccc(-c2sc(NC(C)(C)C)nc2C)cc1S(=O)(=O)NC1CCCC(O)C1` (stereo not drawn) [Compound S-218, 5-[2-(tert-butylamino)-4-methyl-thiazol-5-yl]-N-(3-hydroxycyclohexyl)-2-methoxy-benzenesulfonamide], the pIC50 is > 7.00.

On to `COc1ccc(-c2sc(NC(C)(C)C)nc2C)cc1S(=O)(=O)NC1CCCNC1` (stereo not drawn) [Compound S-220, 5-[2-(tert-butylamino)-4-methyl-thiazol-5-yl]-2-methoxy-N-(3-piperidyl)benzenesulfonamide], for which the pIC50 is > 7.00.

Turning to `COc1ccc(-c2sc(NCC(C)C)nc2C)cc1S(=O)(=O)NC1CCCC(O)C1` (stereo not drawn) [Compound S-223, N-(3-hydroxycyclohexyl)-5-[2-(isobutylamino)-4-methyl-thiazol-5-yl]-2-methoxy-benzenesulfonamide; 2,2,2-trifluoroacetic acid], the pIC50 is > 7.00.

The target in the next test is T2, PI3K p110g (Homo sapiens, UniProt P48736).
T2 construct: purchased Millipore
T2 sequence (P48736 whole entry): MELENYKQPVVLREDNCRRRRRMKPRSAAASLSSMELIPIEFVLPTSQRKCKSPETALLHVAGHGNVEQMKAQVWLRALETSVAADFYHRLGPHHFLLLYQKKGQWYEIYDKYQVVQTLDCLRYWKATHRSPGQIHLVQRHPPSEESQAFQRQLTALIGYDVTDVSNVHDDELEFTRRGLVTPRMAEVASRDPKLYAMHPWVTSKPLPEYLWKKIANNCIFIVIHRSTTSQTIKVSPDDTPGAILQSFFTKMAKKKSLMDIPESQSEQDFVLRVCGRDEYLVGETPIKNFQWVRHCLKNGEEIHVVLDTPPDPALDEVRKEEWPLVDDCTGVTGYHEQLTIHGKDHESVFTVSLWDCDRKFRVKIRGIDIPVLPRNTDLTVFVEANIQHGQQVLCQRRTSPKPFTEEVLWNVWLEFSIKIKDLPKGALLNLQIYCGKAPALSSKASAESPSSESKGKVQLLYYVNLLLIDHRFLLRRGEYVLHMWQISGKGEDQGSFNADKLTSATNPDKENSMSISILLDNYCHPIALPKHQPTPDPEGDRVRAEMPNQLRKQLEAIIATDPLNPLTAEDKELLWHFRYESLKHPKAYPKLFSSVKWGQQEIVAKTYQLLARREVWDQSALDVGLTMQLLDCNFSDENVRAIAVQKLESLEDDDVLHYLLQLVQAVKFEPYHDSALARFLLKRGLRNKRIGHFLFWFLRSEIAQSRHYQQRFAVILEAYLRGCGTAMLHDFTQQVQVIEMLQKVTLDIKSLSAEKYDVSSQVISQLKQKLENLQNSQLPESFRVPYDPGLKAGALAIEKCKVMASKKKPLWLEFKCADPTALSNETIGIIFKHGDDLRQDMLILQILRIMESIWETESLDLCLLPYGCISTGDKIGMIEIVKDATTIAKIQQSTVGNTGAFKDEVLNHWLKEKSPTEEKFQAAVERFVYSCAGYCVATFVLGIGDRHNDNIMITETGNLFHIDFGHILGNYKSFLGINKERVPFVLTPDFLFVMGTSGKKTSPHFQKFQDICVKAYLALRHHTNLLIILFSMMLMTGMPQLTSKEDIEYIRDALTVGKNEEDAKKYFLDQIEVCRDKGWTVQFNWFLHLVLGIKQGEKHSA
Nature of the test: PI3K p110g kinase assay.
Details: not given
In kind it is biochemical. How it is done: In the assays described here, p110α-p85 complex and p110γ were acquired from Millipore. Assays were performed with Lα-phosphatidylinositol (Avanti) as described in Knight et al. Nat Protoc. 2007; 2 (10):2459-66. Inhibitor series were prepared 10% DMSO as 5× stocks for the assay. Assays of HsVps34 were performed as described in Knight et al, except that the final assay buffer composition used was changed to 20 mM HEPES 7.5, 100 mM NaCl, 3 mM MgCl, 1 mg/mL PI and 44 nM hvps34 was used in the assay. […] COS-7 cells were cultured in 10 cm dishes and transfected at 70% confluence with 10 μg of plasmid DNA (HA-tagged bovine PI4KIIIβ, HA-tagged human PI4KIIIα) using Lipofectamine 2000 and 5 ml Opti-MEM following the manufacturer's instructions. After 5 hours the transfection medium was replaced with 10 ml complete DMEM. 36 hrs post transfection, cells were washed once with 5 ml PBS (pH 7.4) and lysed in 1 ml of lysis buffer (1) on ice. Lysates were collected by scraping and after 15 min they were centrifuged at 13,000 rpm for 10 min. To the lysates was added 200 μl of protein G Sepharose 4 fast flow beads that were prewashed with PBS and lysis buffer and 2 μg of anti-HA antibody. The tubes were then incubated overnight at 4 degrees C. in a tube rotator. The Sepharose beads in the lysate were washed twice with 150 mM NaCl in RIPA buffer, twice with RIPA buffer and once with kinase buffer (50 mM Tris/HCl, pH 7.5, 20 mM MgCl2, 1 mM EGTA, 1 mM PtdIns, 0.4% Triton X-100, 0.5 mg/mL BSA) and finally the beads were resuspended in 200 μL kinase buffer. Kinase reactions were run in a mixture of 45 μL of PI buffer (1 mM PI in kinase buffer), 10 μL of immunoprecipitated beads, 2 µL of inhibitors (dissolved and diluted in DMSO) or DMSO and 5 μL of [γ-^32P]-ATP (1 mM and 2 μCi/tube). The immunoprecipitates in PI buffer were pre-incubated with the drugs for 20 min prior the initiation of kinase reaction by adding ATP and the reactions were carried out for 30 min in 15 ml polypropolyne tubes. Reactions were terminated by addition of 3 ml of CHCl3:CH3OH:HCl (200:100:0.75) followed by 0.6 ml of 0.6N HCl to induce phase separation. The mixtures were vortexed, centrifuged at 2000 rpm for 2 min and the upper phase was discarded. To the lower phase was added 1.5 ml of CHCl3:CH3OH:0.6N HCl (3:48:47) and the mixture vortexed and centrifuged at 2000 rpm for 2 min. The lower phase was then transferred to counting vials and evaporated. Samples were counted in a scintillation beta counter after adding 5 ml of Instafluor (Perkin-Elmer).
PI-kinase assay: Compounds are tested in C.1.1. PI kinase assays as described by Shokat et al., “A membrane capture assay for lipid kinase activity.” Nat. Protoc. 2007; 2(10):2459-66.
As for `COc1ccc(-c2sc(NC(=O)CC3CCCC3)nc2C)cc1S(=O)(=O)Nc1ccc(C)nc1` [Compound S-100, 2-cyclopentyl-N-[5-[4-methoxy-3-[(6-methyl-3-pyridyl)sulfamoyl]phenyl]-4-methyl-thiazol-2-yl]acetamide; 2,2,2-trifluoroacetic acid], the pIC50 is < 5.00.

As for `COc1ccc(-c2sc(NCC3CCCCC3)nc2C)cc1S(=O)(=O)NC1CC1` [Compound S-127, 5-[2-(cyclohexylmethylamino)-4-methyl-thiazol-5-yl]-N-cyclopropyl-2-methoxy-benzenesulfonamide], the pIC50 was < 5.00.

Take `COc1ccc(-c2sc(NCC3CCCCC3)nc2C)cc1S(=O)(=O)NCC1CCCCC1` [Compound S-128, N-(cyclohexylmethyl)-5-[2-(cyclohexylmethylamino)-4-methyl-thiazol-5-yl]-2-methoxy-benzenesulfonamide]: the pIC50 is < 5.00.

For the compound `COc1ccc(-c2sc(NC3CCCCC3)nc2C)cc1S(=O)(=O)NC1CCCC1` [Compound S-129, 5-[2-(cyclohexylamino)-4-methyl-thiazol-5-yl]-N-cyclopentyl-2-methoxy-benzenesulfonamide], the pIC50 is < 5.00.

As for `COc1ccc(-c2sc(N[C@H](C)CC3CCCCC3)nc2C)cc1S(=O)(=O)NC1CCNCC1` [Compound S-145, 5-[2-[[(1R)-2-cyclohexyl-1-methyl-ethyl]amino]-4-methyl-thiazol-5-yl]-2-methoxy-N-(4-piperidyl)benzenesulfonamide], the pIC50 was < 5.00.

Consider `COc1ccc(-c2sc(N[C@H](C)C3CCCCC3)nc2C)cc1S(=O)(=O)NC1CCNCC1` [Compound S-147, 5-[2-[[(1R)-1-cyclohexylethyl]amino]-4-methyl-thiazol-5-yl]-2-methoxy-N-(4-piperidyl)benzenesulfonamide], for which the pIC50 is < 5.00.

For `COc1ccc(-c2sc(NC(=O)CC3CCOCC3)nc2C)cc1S(=O)(=O)Nc1cc(C)cc(O)c1` [Compound S-169, N-[5-[3-[(3-hydroxy-5-methyl-phenyl)sulfamoyl]-4-methoxy-phenyl]-4-methyl-thiazol-2-yl]-2-tetrahydropyran-4-yl-acetamide], the pIC50 was < 5.00.

Regarding `COc1ccc(-c2sc(NC(=O)CC3CCOCC3)nc2C)cc1S(=O)(=O)Nc1ccc(F)cc1` [Compound S-170, N-[5-[3-[(4-fluorophenyl)sulfamoyl]-4-methoxy-phenyl]-4-methyl-thiazol-2-yl]-2-tetrahydropyran-4-yl-acetamide], the pIC50 was < 5.00.

`COc1ncc(-c2sc(NC(=O)CC3CCOCC3)nc2C)cc1S(=O)(=O)Nc1cccc(O)c1` [Compound S-259] had a pIC50 of 5.00 to 6.00.

`COc1ncc(-c2sc(NC(=O)CC3CCOCC3)nc2C)cc1S(=O)(=O)N[C@H]1CC[C@@H](O)CC1` [Compound S-262] had a pIC50 of 5.00 to 6.00.

On to `COc1ncc(-c2sc(NC(=O)CC3CCOCC3)nc2C)cc1S(=O)(=O)Nc1cccc(C(=O)O)c1` [Compound S-265], for which the pIC50 was < 5.00.

The next test has as its system HRV. Nature of the test: Rhinovirus antiviral assay. It counts as cell-based. As to conditions: Human rhinovirus sp.
The pEC50 is the EC50 on a negative log10 scale, so that one unit is a factor of ten. A low value points to a large EC50. In the case of `COc1ccc(NS(=O)(=O)c2cc(-c3sc(NC(=O)CC4CCCCC4)nc3C)ccc2OC)c(C)c1` [Compound S-85, 2-cyclohexyl-N-[5-[4-methoxy-3-[(4-methoxy-2-methyl-phenyl)sulfamoyl]phenyl]-4-methyl-thiazol-2-yl]acetamide], the pEC50 was > 9.00.

On to `COc1ccc(NS(=O)(=O)c2cc(-c3sc(NC4CCCCCC4)nc3C)ccc2OC)c(C)c1` [Compound S-89, 5-[2-(cycloheptylamino)-4-methyl-thiazol-5-yl]-2-methoxy-N-(4-methoxy-2-methyl-phenyl)benzenesulfonamide; 2,2,2-trifluoroactic acid], for which the pEC50 is > 9.00.

In the case of `COc1ccc(-c2sc(NC3CCCCC3)nc2C)cc1S(=O)(=O)Nc1ccc(O)cc1C` [Compound S-106, 5-[2-(cyclohexylamino)-4-methyl-thiazol-5-yl]-N-(4-hydroxy-2-methyl-phenyl)-2-methoxy-benzenesulfonamide], the pEC50 was > 9.00.
